Entries after “also recorded” stand apart in the source; their conditions may differ.
How the values were obtained:
HCT-116 cells = assay: MTT cell viability assay, HCT-116; format: cell-based; settings: Homo sapiens, 72 h treatment
Procedure: The antiproliferative activity of the synthesized compounds was evaluated by the 3-(4,5-dimethylthiazol-2-yl)-2,5-diphenyl tetrazolium bromide (MTT) cell viability assay. Two types of breast cancer cell lines—namely MCF-7, which has estrogen and progesterone receptors, and MDA-MB-231, which is triple negative—were used, in addition to a colon cancer cell line (HCT-116).
The target products 3a–o were evaluated for their antiproliferative activity using the MTT viability assay of the MCF-7, MDA-MB-231 and HCT-116 cell lines (in triplicate) on at least three independent occasions for the determination of the reported mean values.
The three human tumor cell lines MCF-7, MDA-MB-231 and HCT-116 were cultured in Dulbecco’s Modified Eagle’s Medium (DMEM) with 10% fetal bovine serum, 2 mM L-glutamine and 100 µg/mL penicillin/streptomycin. The cells were maintained at 37 °C in 5% CO2 in a humidified incubator. All of the cells were sub-cultured 3 times/week by trypsinization using TrypLE Express (1×).
In order to calculate the relative IC50 values, the antiproliferative effect of compounds 3a–o was tested in three cancer cell lines (MCF-7, MDA-MB-231, HCT-116) and normal epithelial embryonic kidney cells (HEK-293) using the MTT viability assay. The cells were seeded in 96-well plates at a density of 10 × 10^3 cells/mL, in a total volume of 200 µL per well. In total, 0.1% DMSO was used as a vehicle control. […] The culture medium was then removed, and the cells were washed with phosphate-buffered saline (PBS), and 100 µL MTT was added (for a final concentration of 5 mg/mL MTT). The cells were incubated for 4 h in darkness at 37 °C. Next, 200 µL DMSO was added to each well, and the cells were maintained at room temperature in darkness for 20 min. The absorbance was detected with a microplate reader at 570 nm. The results were expressed as a percentage of viability relative to the vehicle control (100%). The dose-response curves were plotted, and the IC50 values were obtained using Prism software (GraphPad Software, Inc., La Jolla, CA, USA). All of the experiments were repeated in three independent experiments.

MCF-7 cells = assay: Cell cycle analysis by PI staining flow cytometry; format: cell-based, human; settings: 2 µM, 48 h
Procedure: The mechanism underlying the growth-inhibitory effect of 3a was further examined. The effect of 3a on cell cycle events in MCF-7 cells, after incubation at 2 µM for 48 h, was analyzed by a DNA flow cytometry assay of propidium iodide (PI) staining (Figure 4A). Compound 3a induced a statistically significant arrest of MCF-7 cells in the G2/M stage (36.8%) compared to the untreated cell line (11.5%) (Figure 4B).
The MCF-7 cells were treated with compound 3a (2 µM) and incubated for 48 h. After trypsinization, the cells were collected and centrifuged at 800× g for 15 min. They were then fixed in ice-cold 70% ethanol overnight at −20 °C. The fixed cells were centrifuged at 800× g for 15 min and stained with 50 μg/mL PI, containing 50 μg/mL DNase-free RNase A, at 37 °C for 30 min. The DNA content of the cells (10,000 cells) was analyzed by flow cytometer at 488 nm, using a FACSCalibur flow cytometer (BD Biosciences, San Jose, CA, USA).
Figure 4 (A) Effect of compound 3a on the cell cycle and apoptosis in breast cancer MCF-7 cells. The cells were treated with either a vehicle (0.1% ethanol (v/v)) or 3a (2 µM) for 48 h. The cell cycle analysis was performed on histograms of gated counts per DNA area (FL2-A). (B) Quantitative analysis of 4N (G2/M), 2N (G0G1), >2N (S) and <2N (sub-G1). The DNA content was determined with CellQuest software. […]

[1] = Zebrafish embryo mortality/toxicity; format: in vivo; settings: wild-type, in vivo; zebrafish embryos, overnight exposure, 0.5 to 1000 µM; mean of three biological replicates ± standard deviation
Procedure: (§1) The zebrafish embryos were obtained by natural pairwise breeding, and were treated essentially as described previously.
(§2) The compounds were dissolved in dimethylsulfoxide (DMSO) in order to prepare a stock concentration of 10 mM. The embryos treated with 0.10% DMSO (v/v) served as the negative controls.
(§3) The fish were kept following the national and international guidelines for the care and use of laboratory animals. The fertilized eggs were obtained by the natural pairwise breeding of adult fish. The approval of the Ethics Committee for the use and care of laboratory animals was not needed, as zebrafish larvae less than 5 days post fertilization were used.
(§4) A stock solution of 50 mM was prepared by dissolving the compounds in dimethyl sulfoxide (DMSO). At least 30 fertilized eggs were sorted and placed in 60-mm sterile glass Petri dishes. A serial dilution of the compounds was prepared by adding the required amount of the compound directly into 5 mL water, and the zebrafish embryos were then exposed to serial dilutions (0.5 to 1000 µM) of each compound overnight. The number of dead and living embryos were counted after the overnight exposure.

zebrafish embryos = assay: Zebrafish embryo mortality/toxicity; format: in vivo; settings: maximum concentration tested 1 mM, versus DMSO control
Procedure: as §1, §2, §3, §4

COC(=O)CNC(=O)CNc1nc(Nc2ccccc2)nc(N2CCOCC2)n1 [Compound 3a, Methyl (4-morpholino-6-(phenylamino)-1,3,5-triazin-2-yl) glycylglycinate]
IC50 (HCT-116 cells): 17.9 ± 3.74 µM | cells in the sub-G1 phase (MCF-7 cells; control 3.7%): 17.3% | MCF-7 cells in the G2/M stage (MCF-7 cells; untreated 11.5%): 36.8% | LC50 [1]: > 1000 µM | toxicity / mortality in zebrafish embryos (zebrafish embryos): did not show any toxicity; also recorded: same mortality ratio as the control
